EP0695187B1, “INHIBITION, CONTROL AND REGRESSION OF ANGIOGENESIS WITH HYALURONIC ACID OR HYALURONIC ACID AND NSAID” (JAGOTEC AG, priority 1993, dated 1994)
Several values for one entry are separate records, joined by “and”; a condition that tells them apart may be missing. Equal entries are not always repeated.

How the values were obtained:
Assay type in all cases: in vivo, mice
[1] = tested on: vasculature within the murine chronic granulomatous air pouch; experiment: further protocol: air pouch granuloma grown 7 days untreated, then topical daily treatment (regression); conditions: for VI: mean vascularity index; for Carmine / Dry wt. gran.: mean
Method: In another protocol, the use of the air pouch on the mice was once again employed. Only this time, after formation of the pouches and injection of .5 ml Freund's complete adjuvant (FCA) supplemented with 0.1% croton oil, the granuloma in the mice were permitted to grow for 7 days (they were left unhealed for 1 week). […] The granulomatous tissue was dissected and treated as previously described. The weight of the granuloma (including the carmine red dye) and weight of the carmine red dye (which displaced the blood) were determined for each mouse sacrificed at each stage (after 7, 14 and 21 days). The vascularity index (VI) was calculated and the mean vascularity index was calculated for each group as follows: Vascularity Index (VI) =(weight of carmine red dye in GRANULOMA)/(Weight of GRANULOMA (including carmine red dye)) [formula]

[2] = tested on: vasculature within the murine chronic granulomatous air pouch; experiment: murine chronic granulomatous air pouch, carmine vascular cast; dosing daily from induction for 6 days; conditions: Topical, n = 8 (Table Three summary)
[3] = tested on: vasculature within the murine chronic granulomatous air pouch; experiment: as above; conditions: for effect on the tissue vascularity: daily
Method: The Applicants chose a simple model of murine angiogenesis induced with a chronic granulomatous reaction to Freund's complete adjuvant in croton oil. The Applicants assessed this process using a modification of this method by the formation of an intravascular cast incorporating carmine red. Chronic granulomatous air pouches were induced by the sc injection of 3 ml air into anaesthetized mice (25-30 g, Tuck Original) and 0.5 ml Freund's complete adjuvant with 0.1% croton oil 24 hours later. The mice were dosed for 6 days and the vascular content assessed by the formation of a vascular cast. This was formed by the intravenous injection of 1 ml 25% carmine red in 10% gelatin at 40°C into warmed mice. This overcame any pharmacological or temperature-related alterations in peripheral vasomotor tone which may have invalidated the results. The carcasses were chilled and the granulomatous air pouch linings dissected. These were dried at 56°C, weighed, and papain digested. The dye was then be dissolved by the addition of 1 ml 0.05 M NaOH, and the samples were then centrifuged at 2500 g for 20 minutes. After these were filtered, the absorbances were read at 490 nm using a multiwell plate reader (Biotek). The results were then expressed as either µg dye/mg dry weight of tissue. […] On the seventh day after induction the vascularity of the tissue was assessed. […] The formation of a subcutaneous air pouch in the dorsum of mice allows the formation of a lining which responds to produce a chronic inflammatory lesion in response to various antigens, irritants and foreign bodies. It can also be used for the introduction of drugs and various other treatments into the site of inflammation and the collection of inflammatory exudate. […] For this experiment female mice (TO. 25-30g, 10 per group) were lightly anesthetized with hypnorm/hypnoval. Air pouches were formed by the subcutaneous injection of 3 ml of filter-sterilized air, into the dorsum of each mouse. After 24 hours, chronic inflammation was induced in the air pouch lining by the injection of 0.5 ml Freund's complete adjuvant (FCA) supplemented with 0.1% croton oil. Animals were dosed daily from the time o: injection of FCA/croton oil, for 6 Days. At which point the analysis was performed. […] Each mouse was then placed into a water jacketed incubation chamber at 37°C and injected i.v. with 1 ml of 15% carmine dye in 10% gelatin (in Hanks balanced salt solution) with syringe and solution prewarmed to 40°C. Cadavers were then chilled at 4°C for 4 hours. The granulomatous tissue was dissected free and dried in an oven at 56°C for 48 hours. The dried granuloma was weighed and then digested in 9 ml of papain solution (12-Units/ml in 0.05 M phosphate buffer, pH 7.0, supplemented with 0.33g/l N-acetyl cysteine), at 56°C for 48 hours. The digests were then made up to 10 ml with 5.0M NaOH and vortexed, to solubilise the dye and centrifuged. The digests were filtered through 0.2µm cellulose nitrate membranes and […] samples aliquoted into 96 well plates and analyzed for dye content by spectrophotometric analysis at […] using a microplate reader. Vascular volume was calculated as carmine content per mg dry mass of tissue.

[4] = 2 week (one week of topical application)
[5] = 3 week (two weeks of topical application)
[6] = i-pouch, n = 10 (Table Three summary)
[7] = intra-pouch injection, daily 6 days, group mean, N = 10

Question: Which “VI” value ([1]; 2 week (one week of topical application), listed as Diclo Alone) does the source give for `O=C(O)Cc1ccccc1Nc1c(Cl)cccc1Cl` [diclofenac (diclo), Diclofenac] here?
Answer: The value was 1.3 µg/mg.

Question: And the “VI” value ([1]; 2 week (one week of topical application), listed as aq. cream/Diclo)?
Answer: The value was 1.300 µg/mg.

Question: What about the “Carmine” value [1, 4] of the same molecule?
Answer: Its value is 108.63 µg.

Question: What about the “Dry wt. gran.” value [1, 4] of the same molecule?
Answer: Its value is 84.41 mg.

Question: What about the “Carmine” value [1, 5] of the same molecule?
Answer: Its value is 150.07 µg.

Question: And the “Dry wt. gran.” value [1, 5]?
Answer: The value was 112.19 mg.

Question: What about the “Carmine dye (ug) Mean” value [2] of the same molecule?
Answer: Its value is 187.3 µg.

Question: What about the “Granuloma dry wt.(mg) Mean” value [2] of the same molecule?
Answer: Its value is 166.3 mg.

Question: What about the “ug.dye/mg.gramuloma Mean” value [2] of the same molecule?
Answer: Its value is 1.216 ug.dye/mg.gramuloma.

Question: What about the “Carmine dye (ug) Mean” value [3, 6] of the same molecule?
Answer: Its value is 92.6 µg.

Question: What about the “ug.dye/mg.gramuloma Mean” value [3, 6] of the same molecule?
Answer: Its value is 0.7363 ug.dye/mg.gramuloma.

Question: And the “effect on the tissue vascularity” value ([3]; intra-lesional injection, assessed on seventh day (Figure 1(b)))?
Answer: Its value is “no significant effect”.

Question: What about the “Absorbness / Absorbous” value ([3]; intra-pouch injection, daily 6 days, absorbance at 490 nm of digest, individual animals, listed as Saline + diclo) of the same molecule?
Answer: The value was 0.773 and 0.242 and 0.730 and 0.400 and 0.409 and 0.262 and 0.402 and 0.468.

Question: And the ug dye mg ([3]; intra-pouch injection, daily 6 days, carmine per mg dry tissue, individual animals, listed as Saline + diclo)?
Answer: Its ug dye mg is 1.194 ug dye mg and 0.320 ug dye mg and 1.577 ug dye mg and 1.050 ug dye mg and 0.674 ug dye mg and 0.442 ug dye mg and 0.526 ug dye mg and 0.471 ug dye mg and 0.586 ug dye mg and 0.520 ug dye mg.

Question: And the “Dry wt” value ([3]; intra-pouch injection, daily 6 days, dried granuloma, individual animals, listed as Saline + diclo)?
Answer: The value was 158 mg and 99 mg (2×) and 124 mg and 162 mg and 170 mg and 122 mg.

Question: What about the ug carmine [3, 7] of the same molecule?
Answer: Its ug carmine is 92.75 µg.

Question: What about the ug dye mg [3, 7] of the same molecule?
Answer: Its ug dye mg is 0.7363 ug dye mg.

Question: And the ug carmine ([3]; intra-pouch injection, daily 6 days, individual animals, listed as Saline + diclo)?
Answer: Its ug carmine is 166 µg and 50.5 µg and 156 µg and 104 µg and 86.7 µg and 54.8 µg and 85.2 µg and 63.7 µg and 99.5 µg and 61.3 µg.

Question: What about the “effect on the tissue vascularity” value ([3]; topical, assessed on seventh day (Figure 1(a))) of the same molecule?
Answer: The value was “no significant effect”.
